Experimental data as given in patent US20110251286A1, “Crystalline salts and/or co-crystals of O-desmethyltramadol” (GRUENENTHAL GmbH, priority 2010, published 2011).

What was measured:
[1] = Dynamic vapor sorption (DVS): sorption and desorption of moisture; format: physicochemical
Protocol: Investigations on the sorption and desorption of moisture (dynamic vapor sorption, DVS): DVS measurements were carried out on an apparatus of the type DVS 1000 from Porotec. The evaluation of the measurements was carried out using software from Surface Measurement Systems. At a temperature between 23° C. and 26° C., starting from a relative humidity of 50%, within 240 minutes the relative humidity first increased to 90% and then fell to 0%. This cycle was repeated a second time. The DVS charts shown are isothermal recordings (plots) of the change in the mass in % (change in mass—dry) as a function of the desired relative humidity in % (target RH). Correspondingly, the axes of the graphs are marked by ΔM [%] and RH [%]. The measurement curves of the first sorption are designated by 1-S, the subsequent first desorption by 1-D, the second sorption by 2-S and the second desorption by 2-D. Advantageously, mass changes between the sorption and desorption phase are as low as possible.

[2] = Release in artificial intestinal juice; format: physicochemical; conditions: for release rate compared to the hydrochloride salt: in artificial intestinal juice; for Release in artificial intestinal juice, percent of the substance released: permeable bag, amount calculated on 100 mg free base
Protocol: Investigations on release were carried out in a Sotax AT7 smart release apparatus with UV measurement (Perkin Elmer photometer).
A vessel with Wood apparatus was used (for intrinsic release).
A pressing of 0.5 cm^2 surface area (diameter 8 mm) was produced with a force of 200 N using approximately 100 mg of active ingredient.
Release was carried out in a release medium, which is composed as described below: • Intestinal juice without pancreas powder, pH 6.8 (analogous to Ph. Eur.); 250.0 ml 6.8 g of potassium dihydrogenphosphate R+0.896 g of NaOH+water to 1000.0 ml.
Release was carried out in a release volume of in each case 500±5 ml at a temperature of the release medium of 37±1° C. with a stirring speed of 100±5 rpm.
The content determination was carried out by means of spectroscopic methods (UV spectroscopy, wavelength: 271 nm, cuvette: 10 mm). Sample taking was carried out manually.
In this release experiment, the individual compounds were placed in a permeable bag in an amount in each case calculated on 100 mg of the free base.
The results, expressed in percent of the substance released, are reproduced in the following tables. In this case, the compounds denote: HCl: hydrochloride; A: cinnamate; B: palmitate; C: decanoate; E: hemi-fumarate and F: hemi-sebacate.

Molecule: palmitate
- ΔM Desorption ([1]; 1st cycle, RH 0.0 %): 0.0000%
- ΔM Desorption ([1]; 1st cycle, RH 10.0 %): 0.0083%
- ΔM Desorption ([1]; 1st cycle, RH 20.0 %): 0.0148%
- ΔM Desorption ([1]; 1st cycle, RH 30.0 %): 0.0234%
- ΔM Desorption ([1]; 1st cycle, RH 40.0 %): 0.0353%
- ΔM Desorption ([1]; 1st cycle, RH 50.0 %): 0.0472%
- ΔM Hysteresis ([1]; 1st cycle, RH 50.0 %): 0.0027%
- ΔM Sorption ([1]; 1st cycle, RH 50.0 %): 0.0445%
- ΔM Desorption ([1]; 1st cycle, RH 60.0 %): 0.0896%
- ΔM Hysteresis ([1]; 1st cycle, RH 60.0 %): 0.0374%
- ΔM Sorption ([1]; 1st cycle, RH 60.0 %): 0.0522%
- ΔM Desorption ([1]; 1st cycle, RH 70.0 %): 0.1139%
- ΔM Hysteresis ([1]; 1st cycle, RH 70.0 %): 0.0412%
- ΔM Sorption ([1]; 1st cycle, RH 70.0 %): 0.0727%
- ΔM Desorption ([1]; 1st cycle, RH 80.0 %): 0.1406%
- ΔM Hysteresis ([1]; 1st cycle, RH 80.0 %): 0.0347%
- ΔM Sorption ([1]; 1st cycle, RH 80.0 %): 0.1059%
- ΔM Desorption ([1]; 1st cycle, RH 90.0 %): 0.1531%
- ΔM Sorption ([1]; 1st cycle, RH 90.0 %): 0.1531%
- ΔM Desorption ([1]; 2nd cycle, RH 0.0 %): 0.0172%
- ΔM Sorption ([1]; 2nd cycle, RH 0.0 %): 0.0000%
- ΔM Desorption ([1]; 2nd cycle, RH 10.0 %): 0.0303%
- ΔM Hysteresis ([1]; 2nd cycle, RH 10.0 %): 0.0202%
- ΔM Sorption ([1]; 2nd cycle, RH 10.0 %): 0.0101%
- ΔM Desorption ([1]; 2nd cycle, RH 20.0 %): 0.0421%
- ΔM Hysteresis ([1]; 2nd cycle, RH 20.0 %): 0.0211%
- ΔM Sorption ([1]; 2nd cycle, RH 20.0 %): 0.0211%
- ΔM Desorption ([1]; 2nd cycle, RH 30.0 %): 0.0552%
- ΔM Hysteresis ([1]; 2nd cycle, RH 30.0 %): 0.0225%
- ΔM Sorption ([1]; 2nd cycle, RH 30.0 %): 0.0326%
- ΔM Desorption ([1]; 2nd cycle, RH 40.0 %): 0.0679%
- ΔM Hysteresis ([1]; 2nd cycle, RH 40.0 %): 0.0237%
- ΔM Sorption ([1]; 2nd cycle, RH 40.0 %): 0.0442%
- ΔM Desorption ([1]; 2nd cycle, RH 50.0 %): 0.0837%
- ΔM Hysteresis ([1]; 2nd cycle, RH 50.0 %): 0.0234%
- ΔM Sorption ([1]; 2nd cycle, RH 50.0 %): 0.0602%
- ΔM Desorption ([1]; 2nd cycle, RH 60.0 %): 0.1344%
- ΔM Hysteresis ([1]; 2nd cycle, RH 60.0 %): 0.0573%
- ΔM Sorption ([1]; 2nd cycle, RH 60.0 %): 0.0771%
- ΔM Desorption ([1]; 2nd cycle, RH 70.0 %): 0.1640%
- ΔM Hysteresis ([1]; 2nd cycle, RH 70.0 %): 0.0739%
- ΔM Sorption ([1]; 2nd cycle, RH 70.0 %): 0.0902%
- ΔM Desorption ([1]; 2nd cycle, RH 80.0 %): 0.1827%
- ΔM Hysteresis ([1]; 2nd cycle, RH 80.0 %): 0.0495%
- ΔM Sorption ([1]; 2nd cycle, RH 80.0 %): 0.1332%
- ΔM Desorption ([1]; 2nd cycle, RH 90.0 %): 0.1771%
- ΔM Sorption ([1]; 2nd cycle, RH 90.0 %): 0.1771%
- ΔM Sorption ([1]; 3rd cycle, RH 0.0 %): 0.0172%
- ΔM Sorption ([1]; 3rd cycle, RH 10.0 %): 0.0231%
- ΔM Sorption ([1]; 3rd cycle, RH 20.0 %): 0.0306%
- ΔM Sorption ([1]; 3rd cycle, RH 30.0 %): 0.0392%
- ΔM Sorption ([1]; 3rd cycle, RH 40.0 %): 0.0498%
- ΔM Sorption ([1]; 3rd cycle, RH 50.0 %): 0.0650%
- release behaviour in artificial intestinal juice ([2]; Experiments B-1 and B-2): more intensely prolonged release
- release rate compared to the hydrochloride salt [2]: decreased release rates compared to the hydrochloride salt

Molecule: O=C(O)/C=C/c1ccccc1 [cinnamate]
- ΔM Desorption ([1]; 1st cycle, RH 0.0 %): 0.0012%
- ΔM Desorption ([1]; 1st cycle, RH 10.0 %): 0.0432%
- ΔM Desorption ([1]; 1st cycle, RH 20.0 %): 0.0766%
- ΔM Desorption ([1]; 1st cycle, RH 30.0 %): 0.1106%
- ΔM Desorption ([1]; 1st cycle, RH 40.0 %): 0.1370%
- ΔM Desorption ([1]; 1st cycle, RH 50.0 %): 0.1624%
- ΔM Hysteresis ([1]; 1st cycle, RH 50.0 %): −0.0006%
- ΔM Sorption ([1]; 1st cycle, RH 50.0 %): 0.1629%
- ΔM Desorption ([1]; 1st cycle, RH 60.0 %): 0.2010%
- ΔM Hysteresis ([1]; 1st cycle, RH 60.0 %): −0.0299%
- ΔM Sorption ([1]; 1st cycle, RH 60.0 %): 0.2309%
- ΔM Desorption ([1]; 1st cycle, RH 70.0 %): 0.2562%
- ΔM Hysteresis ([1]; 1st cycle, RH 70.0 %): −0.0081%
- ΔM Sorption ([1]; 1st cycle, RH 70.0 %): 0.2643%
- ΔM Desorption ([1]; 1st cycle, RH 80.0 %): 0.2988%
- ΔM Hysteresis ([1]; 1st cycle, RH 80.0 %): 0.0150%
- ΔM Sorption ([1]; 1st cycle, RH 80.0 %): 0.2839%
- ΔM Desorption ([1]; 1st cycle, RH 90.0 %): 0.3057%
- ΔM Sorption ([1]; 1st cycle, RH 90.0 %): 0.3057%
- ΔM Desorption ([1]; 2nd cycle, RH 0.0 %): −0.0605%
- ΔM Sorption ([1]; 2nd cycle, RH 0.0 %): 0.0012%
- ΔM Desorption ([1]; 2nd cycle, RH 10.0 %): −0.0253%
- ΔM Hysteresis ([1]; 2nd cycle, RH 10.0 %): −0.0610%
- ΔM Sorption ([1]; 2nd cycle, RH 10.0 %): 0.0357%
- ΔM Desorption ([1]; 2nd cycle, RH 20.0 %): 0.0046%
- ΔM Hysteresis ([1]; 2nd cycle, RH 20.0 %): −0.0576%
- ΔM Sorption ([1]; 2nd cycle, RH 20.0 %): 0.0622%
- ΔM Desorption ([1]; 2nd cycle, RH 30.0 %): 0.0322%
- ΔM Hysteresis ([1]; 2nd cycle, RH 30.0 %): −0.0576%
- ΔM Sorption ([1]; 2nd cycle, RH 30.0 %): 0.0898%
- ΔM Desorption ([1]; 2nd cycle, RH 40.0 %): 0.0605%
- ΔM Hysteresis ([1]; 2nd cycle, RH 40.0 %): −0.0553%
- ΔM Sorption ([1]; 2nd cycle, RH 40.0 %): 0.1157%
- ΔM Desorption ([1]; 2nd cycle, RH 50.0 %): 0.0881%
- ΔM Hysteresis ([1]; 2nd cycle, RH 50.0 %): −0.0530%
- ΔM Sorption ([1]; 2nd cycle, RH 50.0 %): 0.1411%
- ΔM Desorption ([1]; 2nd cycle, RH 60.0 %): 0.1169%
- ΔM Hysteresis ([1]; 2nd cycle, RH 60.0 %): −0.0461%
- ΔM Sorption ([1]; 2nd cycle, RH 60.0 %): 0.1629%
- ΔM Desorption ([1]; 2nd cycle, RH 70.0 %): 0.1480%
- ΔM Hysteresis ([1]; 2nd cycle, RH 70.0 %): −0.0248%
- ΔM Sorption ([1]; 2nd cycle, RH 70.0 %): 0.1727%
- ΔM Desorption ([1]; 2nd cycle, RH 80.0 %): 0.1658%
- ΔM Hysteresis ([1]; 2nd cycle, RH 80.0 %): −0.0052%
- ΔM Sorption ([1]; 2nd cycle, RH 80.0 %): 0.1710%
- ΔM Desorption ([1]; 2nd cycle, RH 90.0 %): 0.1532%
- ΔM Sorption ([1]; 2nd cycle, RH 90.0 %): 0.1532%
- ΔM Sorption ([1]; 3rd cycle, RH 0.0 %): −0.0605%
- ΔM Sorption ([1]; 3rd cycle, RH 10.0 %): −0.0190%
- ΔM Sorption ([1]; 3rd cycle, RH 20.0 %): 0.0104%
- ΔM Sorption ([1]; 3rd cycle, RH 30.0 %): 0.0345%
- ΔM Sorption ([1]; 3rd cycle, RH 40.0 %): 0.0599%
- ΔM Sorption ([1]; 3rd cycle, RH 50.0 %): 0.0829%
- release rate compared to the hydrochloride salt [2]: decreased release rates compared to the hydrochloride salt

Molecule: CCCCCCCCCC(=O)O.CN(C)CC1CCCCC1(O)c1cccc(O)c1 (stereo not shown) [decanoate]
- release rate compared to the hydrochloride salt [2]: decreased release rates compared to the hydrochloride salt

Molecule: CN(C)C[C@H]1CCCC[C@]1(O)c1cccc(O)c1.Cl [HCl-2]
- Release in artificial intestinal juice, percent of the substance released ([2]; t 2 min): 97.72%
- Release in artificial intestinal juice, percent of the substance released ([2]; t 4 min): 98.52%
- Release in artificial intestinal juice, percent of the substance released ([2]; t 6 min): 100.41%
- Release in artificial intestinal juice, percent of the substance released ([2]; t 8 min): 98.83%
- Release in artificial intestinal juice, percent of the substance released ([2]; t 10 min): 100.29%
- Release in artificial intestinal juice, percent of the substance released ([2]; t 12 min): 98.70%
- Release in artificial intestinal juice, percent of the substance released ([2]; t 15 min): 100.05%
- Release in artificial intestinal juice, percent of the substance released ([2]; t 30 min): 99.96%
